# Columns and labels:
# T-cell [1] = test: Inhibitory activity against murine immune-system T-cells stimulated with concanavalin-A at 100 ng/ml; format: functional, Mus musculus
# T-cell [2] = test: Inhibitory activity against murine immune-system T-cells stimulated with concanavalin-A at 10 ng/ml; format: functional, Mus musculus
# Plakortis simplex = test: In vitro immunosuppressors activity against P. simplex; Potent; format: functional, organism-based
SMILES,Proliferation (T-cell [1]),Proliferation (T-cell [2]),Activity (Plakortis simplex)
CCCCCCCCCCCCCCCCCC(CCCCCCCCCCCCCCCCC)O[C@@H]1O[C@@H](CO)[C@H](O[C@H]2O[C@@H](CO)[C@@H](O)[C@H](O)[C@@H]2O)[C@H](O)[C@@H]1O,79%,43%,
CCCCCCCCCCCCCCCCC(CCCCCCCCCCCCCCC(C)C)O[C@@H]1O[C@@H](CO)[C@H](O[C@H]2O[C@@H](CO)[C@@H](O)[C@H](O)[C@@H]2O)[C@H](O)[C@@H]1O (stereo partly specified),79%,43%,
CCCCCCCCCCCCCCCCCC(CCCCCCCCCCCCCCCC)O[C@@H]1O[C@@H](CO)[C@H](O[C@H]2O[C@@H](CO)[C@@H](O)[C@H](O)[C@@H]2O)[C@H](O)[C@@H]1O (stereo partly specified),79%,43%,
CCCCCCCCCCCCCCCCCCC(CCCCCCCCCCCCCCCCC)O[C@@H]1O[C@@H](CO)[C@H](OC2O[C@@H](CO)[C@@H](O)[C@H](O)[C@@H]2O)[C@H](O)[C@@H]1O (stereo partly specified),79%,43%,
CCCCCCCCCCCCCCCCC(CCCCCCCCCCCCCCC(C)CC)O[C@@H]1O[C@@H](CO)[C@H](O[C@H]2O[C@@H](CO)[C@@H](O)[C@H](O)[C@@H]2O)[C@H](O)[C@@H]1O (stereo partly specified),79%,43%,
CC(C)CCCCCCCCCCCCCCC(CCCCCCCCCCCCCCC(C)C)O[C@@H]1O[C@@H](CO)[C@H](O[C@H]2O[C@@H](CO)[C@@H](O)[C@H](O)[C@@H]2O)[C@H](O)[C@@H]1O,79%,43%,
CCCCCCCCCCCCCCCCCCC(CCCCCCCCCCCCCCC(C)CC)O[C@@H]1O[C@@H](CO)[C@H](O[C@H]2O[C@@H](CO)[C@@H](O)[C@H](O)[C@@H]2O)[C@H](O)[C@@H]1O (stereo partly specified),79%,43%,
CCC(C)CCCCCCCCCCCCCCC(CCCCCCCCCCCCCCC(C)CC)O[C@@H]1O[C@@H](CO)[C@H](OC2O[C@@H](CO)[C@@H](O)[C@H](O)[C@@H]2O)[C@H](O)[C@@H]1O (stereo partly specified),79%,43%,
CCCCCCCCCCCC1CC1CCCCC/C=C/CC[C@@H](O)[C@H](CO[C@@H]1O[C@@H](CO)[C@H](O)[C@H](O)[C@@H]1OCC=C(C)C)NC(=O)[C@H](O)CC/C=C\CCCCC1CC1CCCCCCCCCC (stereo partly specified),,,Potent
CCCCCCCCCCCCCCCCCCC(CCCCCCCCCCCCCCCCCC)O[C@@H]1O[C@@H](CO)[C@H](O[C@H]2O[C@@H](CO)[C@@H](O)[C@H](O)[C@@H]2O)[C@H](O)[C@@H]1O,79%,43%,
CCCCCCCCCCCCCCCCCC(CCCCCCCCCCCCCCC(C)C)O[C@@H]1O[C@@H](CO)[C@H](O[C@H]2O[C@@H](CO)[C@@H](O)[C@H](O)[C@@H]2O)[C@H](O)[C@@H]1O (stereo partly specified),79%,43%,
CCCCCCCCCCCCCCCCCCC(CCCCCCCCCCCCCCC(C)C)O[C@@H]1O[C@@H](CO)[C@H](OC2O[C@@H](CO)[C@@H](O)[C@H](O)[C@@H]2O)[C@H](O)[C@@H]1O (stereo partly specified),79%,43%,
CCC(C)CCCCCCCCCCCCCCC(CCCCCCCCCCCCCCC(C)C)O[C@@H]1O[C@@H](CO)[C@H](O[C@H]2O[C@@H](CO)[C@@H](O)[C@H](O)[C@@H]2O)[C@H](O)[C@@H]1O (stereo partly specified),79%,43%,
CCCCCCCCCCCCCCCCCCC(CCCCCCCCCCCCCCCC)O[C@@H]1O[C@@H](CO)[C@H](O[C@H]2O[C@@H](CO)[C@@H](O)[C@H](O)[C@@H]2O)[C@H](O)[C@@H]1O (stereo partly specified),79%,43%,
CCCCCCCCCCCCCCCCC(CCCCCCCCCCCCCCCC)O[C@@H]1O[C@@H](CO)[C@H](O[C@H]2O[C@@H](CO)[C@@H](O)[C@H](O)[C@@H]2O)[C@H](O)[C@@H]1O,79%,43%,
CCCCCCCCCCCCCCCCCC(CCCCCCCCCCCCCCC(C)CC)O[C@@H]1O[C@@H](CO)[C@H](O[C@H]2O[C@@H](CO)[C@@H](O)[C@H](O)[C@@H]2O)[C@H](O)[C@@H]1O (stereo partly specified),79%,43%,
